The results in this text go back to PubChem BioAssay (NCI).

Molecules are shown by their SMILES.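 Test compounds were applied to cells in 96-well plates for 48 hours at 5 doses. Abbreviation: GI50, concentration required for 50% inhibition of growth. At the TGI there is no net growth.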

Holding throughout (test): DTP human tumour cell line panel, 48 h
The subject of experiment [1] is SR leukemia.
The subject of experiment [2] is NCI-H226 lung.
Experiment [3] relates to NCI/ADR-RES ovarian.
Experiment [4] deals with HS 578T breast.
Experiment [5] deals with NCI-H522 lung.
Experiment [6] relates to NCI-H23 lung.
Experiment [7] concerns COLO 205 colon.
Experiment [8] has as its system HOP-92 NSCLC.
Experiment [9] has as its system SNB-75 CNS.
The subject of experiment [10] is ACHN renal.

For the compound `CC(C)(N)CO[C@H]1C[C@H]2CC[C@@]1(C)C2(C)C`, the TGI in [1] is 81.1 µM; in experiment [2], 49.8 µM; in experiment [3] it was above 100 µM; in [4], 79 µM; in [5], 37.1 µM; in experiment [6] it was 66 µM. Moreover, the TGI in experiment [7] came to 35.2 µM; in experiment [8] it was 49.1 µM; in experiment [9] it was 39.3 µM; in experiment [10], 95 µM.
On to `COc1ccc(NS(=O)c2ccc(-c3ccccc3)cc2)cc1` (stereo unspecified), for which the TGI in [1] was above 100 µM; in [2], above 100 µM; in experiment [3], above 100 µM; in experiment [4], 31.2 µM; in experiment [5], above 100 µM; in experiment [6] it was above 100 µM. Further, the TGI is above 100 µM in experiment [7], 62.5 µM in experiment [9] and above 100 µM in experiment [10].
`NCC[Se][Se]CCN`: the TGI in [1] was above 100 µM; in experiment [2], 29.1 µM; in experiment [3], 58 µM; in experiment [4], 82.2 µM; in experiment [5], 25.6 µM; in experiment [6], 30.6 µM. The TGI in [7] came out at 14.6 µM; in experiment [8] it was 35.8 µM; in experiment [9], 27.4 µM; in experiment [10] it was 22.8 µM.
Turning to `O=S1(=O)NNC(=NCc2ccc(Cl)c(Cl)c2)c2ccccc21`, the TGI in experiment [1] is 47.1 µM; in experiment [2], above 100 µM; in experiment [7], above 100 µM; in [8], above 100 µM; in experiment [10], above 100 µM.
On to `COc1cc2cc[n+](C)c(Cc3ccccc3)c2cc1OC`, for which the TGI in experiment [2], in experiment [5], in [6], in experiment [7], in [8] and in [9] was above 100 µM throughout. The compound further returned a TGI in experiment [10] above 100 µM.
For the compound `CNC(C)Cc1ccccc1O` (stereo unspecified), the TGI in experiment [1], in experiment [2], in experiment [5], in experiment [6], in experiment [7] and in experiment [8] was above 100 µM in each case. In addition, the TGI in experiment [9] and in [10] was above 100 µM throughout.
For `Nc1ccc2c(c1)C1=NNC(=O)CC1C2` (stereo unspecified), the TGI in experiment [2], in experiment [3], in experiment [5], in experiment [6], in experiment [7] and in experiment [8] was above 100 µM in each case. The compound also had a TGI in experiment [9] above 100 µM.
For the compound `CC1SC(c2ccccc2)N(Nc2c3ccccc3nc3ccccc23)C1=O` (stereo unspecified), the TGI in experiment [1], in [2], in experiment [5], in [6], in experiment [7] and in experiment [9] was above 100 µM each time. The compound further displayed a TGI in [10] above 100 µM.
Take `O=C(N/C(=C\c1ccccc1[N+](=O)[O-])c1nc2ccccc2[nH]1)c1ccccc1`: the TGI in [1], in experiment [5], in experiment [6], in [7] and in experiment [8] was above 100 µM throughout.
As to `CCC(CS(=O)(=O)O)[N+](=O)[O-]` (stereo unspecified), the TGI in experiment [2], in [3], in experiment [4], in experiment [5], in experiment [6] and in experiment [7] was above 100 µM each time. The TGI in [9] and in [10] was above 100 µM throughout.
`CN1CCN(c2ccc(-c3ccc4ncc(C#N)c(Nc5ccc(F)c(Cl)c5)c4c3)cc2)CC1`: the GI50 was 2.01 µM in experiment [1]; 10.2 µM in experiment [2]; 4.57 µM in [3]; 2.55 µM in experiment [4]; 1.15 µM in experiment [5]; 10.1 µM in experiment [6]. Further, the GI50 in experiment [7] is 1.92 µM; in experiment [8], 3.47 µM; in experiment [9], 2.33 µM; in experiment [10], 0.491 µM. The TGI in [1] was determined as 6.82 µM; in experiment [2], 34.3 µM; in experiment [3], 27.9 µM; in experiment [4] it was 9.88 µM; in [5], 4.02 µM; in [6], 41.5 µM. The TGI in [7] amounted to 4.99 µM; in experiment [8], 28.4 µM; in experiment [9] it was 15.9 µM; in experiment [10], 2.72 µM.
For `CN(C)CCNc1ccc2ncnc3c2c1C(=O)c1ccccc1-3`, the TGI in experiment [1] was 0.915 µM; in experiment [2], 3.74 µM; in experiment [3], 5.28 µM; in experiment [4], 15.1 µM; in experiment [5] it was 0.982 µM; in experiment [6] it was 3.4 µM. Besides, the TGI in [7] came out at 15.5 µM; in [8], 8.43 µM; in experiment [9], 6.96 µM; in experiment [10], 8.77 µM.
Turning to `O=[N+]([O-])c1ccc(N=Nc2c(O)ccc3cc(S(=O)(=O)O)ccc23)cc1`, the TGI in experiment [3], in experiment [4], in experiment [5], in experiment [6], in experiment [7] and in experiment [8] was above 100 µM each time. Moreover, the TGI in experiment [9] and in experiment [10] was above 100 µM in each case.
Turning to `C=C(C)[C@@H]1CC[C@]2(C)CC[C@]3(C)[C@H](CC[C@@H]4[C@@]5(C)CC[C@H](OC(=O)c6ccccc6)C(C)(C)[C@@H]5CC[C@]43C)[C@@H]12`, the TGI in experiment [1], in [2], in [3], in experiment [4], in [5] and in [6] was above 100 µM each time. Moreover, the TGI in experiment [7], in experiment [8], in [9] and in experiment [10] was above 100 µM throughout.
Regarding `CO[C@H]1[C@@H](O)[C@@H](C)O[C@@H](O[C@H]2CC[C@@]3(C)[C@H](CC[C@@H]4[C@@H]3CC[C@]3(C)[C@@H](C5=CC(=O)OC5)CC[C@]43O)C2)[C@@H]1O`, the TGI came to 0.483 µM in experiment [1]; 0.135 µM in experiment [2]; 0.0276 µM in [3]; 0.031 µM in experiment [4]; 0.0194 µM in [5]; 0.00675 µM in experiment [6]. The TGI in [7] came to 0.221 µM; in [8] it was 0.0685 µM; in experiment [9] it was 0.0271 µM; in [10] it was 0.0102 µM. For the same compound, the GI50 in [6] was below 0.0025 µM.
For the compound `O=c1[nH][nH]c(=O)[nH]1`, the TGI in experiment [1], in [2], in experiment [5], in experiment [6], in [7] and in experiment [8] was above 100 µM in each case. The same compound returned a TGI in [9] above 100 µM.
In the case of `Cc1nc2ccccc2c(=O)n1-c1n[nH]c2ccccc12`, the TGI in [1], in [2], in experiment [3], in [4], in [5] and in [6] was above 100 µM throughout. Also, the TGI in experiment [7], in experiment [8], in experiment [9] and in experiment [10] was above 100 µM each time.
On to `CCn1nc(C)c2c1C(=O)NC(C)C(=O)N2` (stereo unspecified), for which the TGI in experiment [4], in experiment [5], in experiment [6], in experiment [7], in [8] and in experiment [9] was above 100 µM in each case. In experiment [10], this compound registered a TGI above 100 µM.
`CC(CN(C)C)C(=O)c1ccccc1C(=O)O` (stereo unspecified): the TGI in experiment [3] was 92.6 µM; in experiment [4], 80.6 µM; in experiment [5] it was 36.6 µM; in experiment [6], 89.1 µM; in experiment [7] it was 66.3 µM; in [8], above 100 µM. In experiment [10], this compound returned a TGI above 100 µM.
